Patent US20240041042A1, “1-(PYRIDYL)-5-AZINYLPYRAZOLE DERIVATIVES, AND THEIR USE FOR CONTROL OF UNDESIRED PLANT GROWTH” (Bayer Aktiengesellschaft, priority 2020, published 2024)
Read-outs that look alike come from different tables or passages of the source.

Tests used:
Format in all cases: in vivo
[1] = system: Amaranthus retroflexus (AMARE); experiment: Post-emergence herbicidal action against AMARE; details: 80 g/ha, visual rating about 3 weeks after treatment vs untreated controls (100% = plants have died, 0% = like control plants)
Outline: (§1)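 Values are percent visual activity (0% like control, 100% plants dead) after about 3 weeks in the greenhouse. Treatment: post-emergence spray at one-leaf stage, 600 l/ha spray volume, 0.5% additive, doses 320 g/ha or lower.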

[2] = system: Abutilon theophrasti (ABUTH); experiment: Post-emergence herbicidal action against ABUTH; details: 80 g/ha, visual rating about 3 weeks after treatment vs untreated controls (100% = plants have died, 0% = like control plants)
Outline: as §1

[3] = system: Avena fatua (AVEFA); experiment: Post-emergence herbicidal action against AVEFA; details: 80 g/ha, visual rating about 3 weeks after treatment
Outline: as §1

[4] = system: Pharbitis purpurea (PHBPU); experiment: Post-emergence herbicidal action against PHBPU; details: dosage 80 g/ha
Outline: as §1

[5] = system: Avena fatua (AVEFA); experiment: Pre-emergence herbicidal action against AVEFA; details: 320 g/ha, visual scoring after about 3 weeks vs untreated controls
Outline: (§2)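 Pre-emergence soil-surface spray of compound, formulated as wettable powder or emulsion concentrate, in aqueous suspension or emulsion with 0.5% additive (600 l/ha; rate 320 g/ha or less). Activity rated visually after roughly 3 weeks in the greenhouse as a percentage of untreated controls, 0% meaning no difference.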

[6] = system: Abutilon theophrasti (ABUTH); experiment: Pre-emergence herbicidal action against ABUTH; details: 100% = plants have died
Text: Seeds of monocotyledonous and dicotyledonous weed plants and crop plants are placed in plastic or organic planting pots and covered with soil. The compounds of the invention, formulated in the form of wettable powders (WP) or as emulsion concentrates (EC), are then applied to the surface of the covering soil as aqueous suspension or emulsion with addition of 0.5% additive at a water application rate equivalent to 600 l/ha. After the treatment, the pots are placed in a greenhouse and kept under good growth conditions for the trial plants. After about 3 weeks, the effect of the preparations is scored visually in comparison with untreated controls as percentages. For example, 100% activity=the plants have died, 0% activity=like control plants.
Tables A1 to A13 below show the effects of selected compounds of the general formula (I) on various harmful plants and at an application rate corresponding to 320 g/ha or lower, which were obtained by the experimental procedure mentioned above. The appendices “a”, “b” and “c” give differentiation by dosage used with otherwise the same harmful plants tested.

[7] = system: Matricaria inodora (MATIN); experiment: Pre-emergence herbicidal action against MATIN
Outline: as §2

[8] = system: Viola tricolor (VIOTR); experiment: Pre-emergence herbicidal action against VIOTR
Outline: as §2

[9] = system: Verconica persica (VERPE); experiment: Pre-emergence herbicidal action against VERPE
Outline: as §2

[10] = system: Echinochloa crus-galli (ECHCG); experiment: Post-emergence herbicidal action against ECHCG; details: dosage 80 g/ha
Outline: as §1

[11] = system: Echinochloa crus-galli (ECHCG); experiment: Pre-emergence herbicidal action against ECHCG
Outline: as §2

[12] = system: Alopecurus myosuroides (ALOMY); experiment: Post-emergence herbicidal action against ALOMY; details: 80 g/ha, visual rating about 3 weeks after treatment vs untreated controls (100% = plants have died, 0% = like control plants)
Outline: as §1

[13] = system: Polygonum convolvulus (POLCO); experiment: Post-emergence herbicidal action against POLCO; details: dosage 80 g/ha
Outline: as §1

[14] = system: Polygonum convolvulus (POLCO); experiment: Pre-emergence herbicidal action against POLCO
Outline: as §2

[15] = system: Amaranthus retroflexus (AMARE); experiment: Pre-emergence herbicidal action against AMARE; details: visual scoring after about 3 weeks vs untreated controls
Outline: as §2

[16] = system: Oryza sativa (ORYSA); details: crop plant compatibility
Outline: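 Percent effect on the crop was judged by eye against untreated controls, where 0% means like control and 100% means dead plants. Plants had been sprayed post-emergence at the one-leaf stage and then kept under optimum greenhouse conditions for about 3 weeks.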

[17] = system: Setaria viridis (SETVI); experiment: Pre-emergence herbicidal action against SETVI
Outline: as §2

[18] = system: Lolium rigidum (LOLRI); experiment: Pre-emergence herbicidal action against LOLRI
Outline: as §2

[19] = system: Lolium rigidum (LOLRI); experiment: Post-emergence herbicidal action against LOLRI; details: dosage 80 g/ha
Outline: as §1

[20] = system: Setaria viridis (SETVI); experiment: Post-emergence herbicidal action against SETVI; details: dosage 80 g/ha
Outline: as §1

[21] = system: Alopecurus myosuroides (ALOMY); experiment: Pre-emergence herbicidal action against ALOMY; details: scored visually after about 3 weeks, 100% = plants have died
Outline: as §2

[22] = system: Verconica persica (VERPE); experiment: Post-emergence herbicidal action against VERPE; details: dosage 80 g/ha
Outline: as §1

[23] = system: Pharbitis purpurea (PHBPU); experiment: Pre-emergence herbicidal action against PHBPU
Outline: as §2

[24] = 80 g/ha, scored visually after about 3 weeks vs untreated controls, 0% = like control plants
[25] = Dosage column 320 g/ha (title prints 3200 g/ha), scored visually after about 3 weeks
[26] = 20 g/ha, effect vs untreated controls
[27] = 80 g/ha, effect in comparison to untreated controls

Question: With COC(=O)CCOC(=O)[C@@H](C)Oc1nn(-c2ccccn2)c(-c2cncc(F)c2)c1Br [Example I-73] as the compound, how does the “Post-emergence action against AMARE in %” value [1] read?
Answer: 90%

Question: What about the “Post-emergence action against ABUTH in %” value [2] of the same compound?
Answer: 80%

Question: What about the “Post-emergence action against AVEFA in %” value [3] of the same compound?
Answer: 80%

Question: What about the “Post-emergence action against PHBPU in %” value [4] of the same compound?
Answer: 90%

Question: What about the “Pre-emergence action against AVEFA in %” value [5] of the same compound?
Answer: 80%

Question: What about the “Pre-emergence action against ABUTH” value [6, 24] of the same compound?
Answer: 80%

Question: What about the “Pre-emergence action against ABUTH” value [6, 25] of the same compound?
Answer: 90%

Question: And the “Pre-emergence action against MATIN in %” value ([7]; dosage 320 g/ha)?
Answer: 90%

Question: What about the “Pre-emergence action against VIOTR in %” value ([8]; 320 g/ha, Viola tricolor) of the same compound?
Answer: 100%

Question: What about the “Pre-emergence action against VIOTR in %” value ([8]; dosage 80 g/ha) of the same compound?
Answer: 100%

Question: And the “Pre-emergence action against VERPE in %” value ([9]; dosage 320 g/ha)?
Answer: 100%

Question: And the “Post-emergence action against ECHCG in %” value [10]?
Answer: 80%

Question: What about the “Pre-emergence action against ECHCG in %” value ([11]; dosage 320 g/ha) of the same compound?
Answer: 90%

Question: And the “Post-emergence action against ALOMY in %” value [12]?
Answer: 100%

Question: What about the “Post-emergence action against POLCO in %” value [13] of the same compound?
Answer: 90%

Question: And the “Pre-emergence action against POLCO in %” value ([14]; dosage 80 g/ha)?
Answer: 80%

Question: And the “Pre-emergence action against POLCO in %” value ([14]; dosage 320 g/ha)?
Answer: 90%

Question: And the “Pre-emergence action against AMARE in %” value ([15]; 80 g/ha)?
Answer: 100%

Question: And the “Pre-emergence action against AMARE in %” value ([15]; 320 g/ha)?
Answer: 100%

Question: What about the “Post-emergence action against ORYSA in %” value [16, 26] of the same compound?
Answer: 0%

Question: What about the “Post-emergence action against ORYSA in %” value [16, 27] of the same compound?
Answer: 10%

Question: And the “Pre-emergence action against SETVI in %” value ([17]; dosage 80 g/ha)?
Answer: 90%

Question: What about the “Pre-emergence action against SETVI in %” value ([17]; dosage 320 g/ha) of the same compound?
Answer: 100%

Question: What about the “Pre-emergence action against LOLRI in %” value ([18]; dosage 80 g/ha) of the same compound?
Answer: 100%

Question: What about the “Pre-emergence action against LOLRI in %” value ([18]; dosage 320 g/ha) of the same compound?
Answer: 100%

Question: What about the “Post-emergence action against LOLRI in %” value [19] of the same compound?
Answer: 80%

Question: And the “Post-emergence action against SETVI in %” value [20]?
Answer: 80%

Question: And the “Pre-emergence action against ALOMY” value ([21]; 80 g/ha)?
Answer: 90%

Question: And the “Pre-emergence action against ALOMY” value ([21]; 320 g/ha)?
Answer: 100%

Question: And the “Post-emergence action against VERPE in %” value [22]?
Answer: 80%

Question: And the “Pre-emergence action against PHBPU in %” value ([23]; dosage 320 g/ha)?
Answer: 90%

Question: Which results are given for C[C@@H](Oc1nn(-c2ccccn2)c(-c2cncc(F)c2)c1Br)C(=O)O [Example I-79]?
Answer: Post-emergence action against AMARE in % [1]: 90%; Post-emergence action against ABUTH in % [2]: 80%; Post-emergence action against AVEFA in % [3]: 100%; Post-emergence action against PHBPU in % [4]: 80%; Pre-emergence action against AVEFA in % [5]: 100%; Pre-emergence action against ABUTH [6, 24]: 80%; Pre-emergence action against ABUTH [6, 25]: 90%; Pre-emergence action against MATIN in % ([7]; dosage 80 g/ha): 80%; Pre-emergence action against MATIN in % ([7]; dosage 320 g/ha): 90%; Pre-emergence action against VIOTR in % ([8]; 320 g/ha, Viola tricolor): 100%; Pre-emergence action against VIOTR in % ([8]; dosage 80 g/ha): 100%; Pre-emergence action against VERPE in % ([9]; dosage 80 g/ha): 80%; Pre-emergence action against VERPE in % ([9]; dosage 320 g/ha): 100%; Pre-emergence action against ECHCG in % ([11]; dosage 80 g/ha): 80%; Pre-emergence action against ECHCG in % ([11]; dosage 320 g/ha): 100%; Post-emergence action against ALOMY in % [12]: 80%; Post-emergence action against POLCO in % [13]: 80%; Pre-emergence action against POLCO in % ([14]; dosage 80 g/ha): 90%; Pre-emergence action against POLCO in % ([14]; dosage 320 g/ha): 90%; Pre-emergence action against AMARE in % ([15]; 80 g/ha): 100%; Pre-emergence action against AMARE in % ([15]; 320 g/ha): 100%; Post-emergence action against ORYSA in % [16, 26]: 0%; Post-emergence action against ORYSA in % [16, 27]: 0%; Pre-emergence action against SETVI in % ([17]; dosage 80 g/ha): 100%; Pre-emergence action against SETVI in % ([17]; dosage 320 g/ha): 100%; Pre-emergence action against LOLRI in % ([18]; dosage 80 g/ha): 100%; Pre-emergence action against LOLRI in % ([18]; dosage 320 g/ha): 100%; Post-emergence action against SETVI in % [20]: 80%; Pre-emergence action against ALOMY ([21]; 80 g/ha): 90%; Pre-emergence action against ALOMY ([21]; 320 g/ha): 100%; Post-emergence action against VERPE in % [22]: 80%; Pre-emergence action against PHBPU in % ([23]; dosage 80 g/ha): 90%; Pre-emergence action against PHBPU in % ([23]; dosage 320 g/ha): 90%
